Test results reported in PMC12136187, “A Full-Spectrum Generative Lead Discovery (FSGLD) Pipeline via DRUG-GAN: A Multiscale Method for Drug-like/Target-specific Compound Library Generation” (Research Square, 2025).

Target: T1, CB2 receptor (cannabinoid receptor 2) (Homo sapiens, UniProt P34972)
T1 construct: gene CNR2
Test: radioligand binding assay, dose-response

T1 sequence (P34972 whole entry): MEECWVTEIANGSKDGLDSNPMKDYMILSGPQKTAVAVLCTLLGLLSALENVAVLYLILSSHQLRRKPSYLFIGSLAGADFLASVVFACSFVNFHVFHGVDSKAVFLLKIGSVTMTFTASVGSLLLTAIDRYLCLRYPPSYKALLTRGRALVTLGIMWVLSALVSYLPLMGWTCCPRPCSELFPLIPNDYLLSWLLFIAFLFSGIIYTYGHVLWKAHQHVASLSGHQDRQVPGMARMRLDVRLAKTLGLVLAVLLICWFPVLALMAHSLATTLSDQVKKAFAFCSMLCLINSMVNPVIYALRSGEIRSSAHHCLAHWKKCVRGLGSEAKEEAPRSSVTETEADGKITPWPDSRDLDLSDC

CCCn1c(C)c(C(=O)NCC(=O)N2CCCCC2)c2cc(OC)ccc21 [ZINC77179032]
Ki: 3.77 µM
